Results on 37 molecules are retold here after patent US9409907B2, “Inhibitor compounds” (Cancer Research Technology Limited, priority 2012, dated 2016).

Bounds are passed on as bounds.

The target of this assay is full length MPS1 (Homo sapiens (Human), UniProt P33981). As to the kind of experiment: Measurement of inhibition of MPS1 kinase (Caliper EZ reader mobility-shift enzyme assay). The class given is biochemical. As to conditions: full length MPS1 12.5 nM or 3 nM, H236 peptide 5 μM, ATP 10 μM, 60 min at room temperature. The protocol: Measurement of Inhibition of MPS1 Kinase
Sequence of full length MPS1 (P33981 whole entry): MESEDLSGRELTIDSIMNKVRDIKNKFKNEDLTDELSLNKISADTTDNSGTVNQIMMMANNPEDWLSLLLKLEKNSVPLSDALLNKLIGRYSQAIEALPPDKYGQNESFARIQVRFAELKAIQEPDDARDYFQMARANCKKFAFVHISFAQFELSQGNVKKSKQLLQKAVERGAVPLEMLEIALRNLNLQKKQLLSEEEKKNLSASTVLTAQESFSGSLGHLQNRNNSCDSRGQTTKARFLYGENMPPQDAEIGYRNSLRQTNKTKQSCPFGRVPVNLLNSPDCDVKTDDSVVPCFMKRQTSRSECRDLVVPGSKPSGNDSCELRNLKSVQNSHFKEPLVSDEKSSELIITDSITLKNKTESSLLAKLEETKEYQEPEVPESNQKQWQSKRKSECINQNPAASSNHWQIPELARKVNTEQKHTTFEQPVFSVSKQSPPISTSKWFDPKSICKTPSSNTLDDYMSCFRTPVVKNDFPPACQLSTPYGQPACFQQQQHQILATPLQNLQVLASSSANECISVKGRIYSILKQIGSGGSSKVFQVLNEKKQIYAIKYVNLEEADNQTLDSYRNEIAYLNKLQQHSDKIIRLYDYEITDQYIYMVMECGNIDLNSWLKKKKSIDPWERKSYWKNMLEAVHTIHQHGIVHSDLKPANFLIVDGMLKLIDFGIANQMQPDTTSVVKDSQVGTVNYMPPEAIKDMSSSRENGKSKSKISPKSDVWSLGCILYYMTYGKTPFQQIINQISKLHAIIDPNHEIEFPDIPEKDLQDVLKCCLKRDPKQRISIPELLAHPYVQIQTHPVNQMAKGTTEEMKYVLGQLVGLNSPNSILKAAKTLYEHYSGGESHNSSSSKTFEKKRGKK
The reaction was carried out for 60 min at room temperature and stopped by the addition of buffer (10 μl) containing 20 mM EDTA, 0.05% (v/v) Brij-35, in 0.1M HEPES-buffered saline (Free acid, Sigma, UK). The plate was read on a Caliper EZ reader II (Caliper Life Sciences).
The % inhibition of the compounds is calculated relative to the means of selected control wells.
As for `COc1cc(-c2nncn2C)ccc1Nc1ncc2c(C)cnc(NCC(C)(C)OC)c2n1` [Example 150, N^8-(2-methoxy-2-methylpropyl)-N^2-(2-methoxy-4-(4-methyl-4H-1,2,4-triazol-3-yl)phenyl)-5-methylpyrido[3,4-d]pyrimidine-2,8-diamine], the half-maximal inhibitory concentration (IC50) amounted to 3 nM.
Consider `COc1cc(C#N)ccc1Nc1ncc2ccnc(N3CCC4(COC4)C3)c2n1` [Example 206], for which the IC50 was found to be 17 nM.
As for `COCC(CO)Nc1nccc2cnc(Nc3ccc(-c4cnn(C)c4)cc3OC)nc12` (stereo not shown) [Example 131, 3-Methoxy-2-(2-(2-methoxy-4-(1-methyl-1H-pyrazol-4-yl)phenylamino)pyrido[3,4-d]pyrimidin-8-ylamino)propan-1-ol], the IC50 was determined as 4 nM.
With `COc1cc(-c2cnn(CCN3CCN(C)CC3)c2)ccc1Nc1ncc2ccnc(NC3CCCCC3)c2n1` [Example 41, N^8-cyclohexyl-N2-(2-methoxy-4-(1-(2-(4-methylpiperazin-1-yl)ethyl)-1H-pyrazol-4-yl)phenyl)pyrido[3,4-d]pyrimidine-2,8-diamine] the figure was 3 nM.
Turning to `COc1cc(-c2cn(C)nc2C)ccc1Nc1ncc2ccnc(NCC(C)(C)OC)c2n1` [Example 190], the IC50 stood at 3 nM.
With `CCn1cc(-c2nccc3cnc(Nc4ccc(-c5cnn(C)c5)cc4OC)nc23)cn1` [Example 91, 8-(1-ethyl-1H-pyrazol-4-yl)-N-(2-methoxy-4-(1-methyl-1H-pyrazol-4-yl)phenyl)pyrido[3,4-d]pyrimidin-2-amine], the IC50 was determined as 10 nM.
As for `COc1nc(-c2cn(C)nc2C)ccc1Nc1ncc2ccnc(NCC(C)(C)OC)c2n1` [Example 164, N^2-(6-(1,3-Dimethyl-1H-pyrazol-4-yl)-2-methoxypyridin-3-yl)-N^8-(2-methoxy-2-methylpropyl)pyrido[3,4-d]pyrimidine-2,8-diamine], the 50% inhibitory concentration (IC50) turned out to be 3 nM.
`COc1cc(-c2cnn(C)c2)ccc1Nc1ncc2ccnc(NCC3(CO)COC3)c2n1` [Example 132, (3-((2-(2-Methoxy-4-(1-methyl-1H-pyrazol-4-yl)phenylamino)pyrido[3,4-d]pyrimidin-8-ylamino)methyl)oxetan-3-yl)methanol]: the IC50 was over 1000 nM.
With `COc1cc(N2CCN(S(C)(=O)=O)CC2)ccc1Nc1ncc2cc(C)nc(NCC(C)(C)C)c2n1` [Example 183] the figure was 16 nM.
On to `COc1cc(-c2cnn(C)c2)ccc1Nc1ncc2ccnc(N3CCC4(CCC4)C3)c2n1` [Example 66, N-(2-methoxy-4-(1-methyl-1H-pyrazol-4-yl)phenyl)-8-(6-azaspiro[3.4]octan-6-yl)pyrido[3,4-d]pyrimidin-2-amine], for which the IC50 was determined as 8 nM.
As for `COc1cc(-c2cnn(C)c2)ccc1Nc1ncc2ccnc(N3CCCC(CO)C3)c2n1` (stereo not shown) [Example 134, (1-(2-(2-Methoxy-4-(1-methyl-1H-pyrazol-4-yl)phenylamino)pyrido[3,4-d]pyrimidin-8-yl)piperidin-3-yl)methanol], the IC50 was found to be 4 nM.
For the molecule `COc1cc(C(=O)N2CC(OC)C2)ccc1Nc1cc2c(-c3cnn(C4CCNCC4)c3)cccc2cn1` [Example 20, (3-Methoxy-4-((5-(1-(piperidin-4-yl)-1H-pyrazol-4-yl)isoquinolin-3-yl)amino)phenyl)(3-methoxyazetidin-1-yl)methanone], the concentration for half-maximal inhibition (IC50) came out at 20 nM.
With `COc1cc(-c2cnn(C)c2)ccc1Nc1ncc2ccnc(NCC3(O)CC3)c2n1` [Example 112, 1-((2-(2-methoxy-4-(1-methyl-1H-pyrazol-4-yl)phenylamino)pyrido[3,4-d]pyrimidin-8-ylamino)methyl)cyclopropanol] the figure was 5 nM.
Next, `COc1cc(C(=O)N2CC(OC)C2)ccc1Nc1ncc2ccnc(NCC(C)(C)OC)c2n1` [Example 193]: 4 nM; `COCCn1c(-c2ccc(Nc3ncc4cc(C)nc(NCC(C)(C)C)c4n3)c(OC)c2)cnc1C` [Example 181]: 19.4 nM.
Next, `COc1cc(-c2cnn(C)c2)ccc1Nc1ncc2ccnc(C3=CCOCC3)c2n1` [Example 144, 8-(3,6-Dihydro-2H-pyran-4-yl)-N-(2-methoxy-4-(1-methyl-1H-pyrazol-4-yl)phenyl)pyrido[3,4-d]pyrimidin-2-amine]: 5 nM; `COc1cc(-c2cnn(C)c2)ccc1Nc1ncc2ccnc(NC3CCOCC3)c2n1` [Example 69, N2-(2-methoxy-4-(1-methyl-1H-pyrazol-4-yl)phenyl)-N8-(tetrahydro-2H-pyran-4-yl)pyrido[3,4-d]pyrimidine-2,8-diamine]: 3 nM; `Cn1cc(-c2cccc3cnc(Nc4ccc(-c5cncn5C)cc4Cl)cc23)cn1` [Example 17, N-(2-chloro-4-(1-methyl-1H-imidazol-5-yl)phenyl)-5-(1-methyl-1H-pyrazol-4-yl)isoquinolin-3-amine]: 51 nM.
As to `COc1cc(-c2nncn2C)ccc1Nc1ncc2cc(C)nc(NCC(C)(C)OC)c2n1` [Example 180], the IC50 was determined as 3 nM.
For the molecule `COCC(C)(C)CNc1nccc2cnc(Nc3ccc(-c4cnn(C)c4)cc3OC)nc12` [Example 85, N8-(3-methoxy-2,2-dimethylpropyl)-N2-(2-methoxy-4-(1-methyl-1H-pyrazol-4-yl)phenyl)pyrido[3,4-d]pyrimidine-2,8-diamine], the IC50 was 24 nM.
Next, `COc1cc(-c2cnc(C)n2C)ccc1Nc1ncc2cc(C)nc(NCC(C)(C)C)c2n1` [Example 177, N2-(4-(1,2-dimethyl-1H-imidazol-5-yl)-2-methoxyphenyl)-6-methyl-N8-neopentylpyrido[3,4-d]pyrimidine-2,8-diamine]: 5 nM; `Cn1cc(-c2ccc(Nc3ncc4ccnc(NCC(C)(C)C)c4n3)c(OC(F)(F)F)c2)cn1` [Example 169, N2-(4-(1-methyl-1H-pyrazol-4-yl)-2-(trifluoromethoxy)phenyl)-N8-neopentylpyrido[3,4-d]pyrimidine-2,8-diamine]: 48 nM.
With `COc1cc(-c2cnn(C)c2)ccc1Nc1ncc2ccnc(N3CCCC4(COC4)C3)c2n1` [Example 123, N-(2-methoxy-4-(1-methyl-1H-pyrazol-4-yl)phenyl)-8-(2-oxa-6-azaspiro[3.5]nonan-6-yl)pyrido[3,4-d]pyrimidin-2-amine], the IC50 worked out at 11 nM.
On to `COc1cc(-c2cnn(C)c2)ccc1Nc1ncc2ccnc(NCCC(C)C)c2n1` [Example 60, N8-isopentyl-N2-(2-methoxy-4-(1-methyl-1H-pyrazol-4-yl)phenyl)pyrido[3,4-d]pyrimidine-2,8-diamine], for which the IC50 stood at 21 nM.
With `COc1cc(-c2cnn(C)c2)ccc1Nc1ncc2ccnc(NCC(C)(C)OC)c2n1` [Example 86, N8-(2-methoxy-2-methylpropyl)-N2-(2-methoxy-4-(1-methyl-1H-pyrazol-4-yl)phenyl)pyrido[3,4-d]pyrimidine-2,8-diamine] the figure was 5 nM.
With `COc1cc(-c2cnn(C)c2CO)ccc1Nc1ncc2ccnc(NCC(C)(C)OC)c2n1` [Example 184] the figure was 2 nM; with `COc1cc(-c2cnn(C)c2)ccc1Nc1ncc2ccnc(-c3cnn(C(C)C)c3)c2n1` [Example 92, 8-(1-isopropyl-1H-pyrazol-4-yl)-N-(2-methoxy-4-(1-methyl-1H-pyrazol-4-yl)phenyl)pyrido[3,4-d]pyrimidin-2-amine], 14 nM.
Next, `COc1cc(-c2cnn(C)c2)ccc1Nc1ncc2ccnc(N3CCC(O)C3)c2n1` (stereo not shown) [Example 80, 1-(2-(2-methoxy-4-(1-methyl-1H-pyrazol-4-yl)phenylamino)pyrido[3,4-d]pyrimidin-8-yl)pyrrolidin-3-ol]: 6 nM.
As for `CN1CCC(NC(=O)c2ccc(Nc3cc4c(-c5cnn(C)c5)cccc4cn3)c(OC(F)(F)F)c2)CC1` [Example 6, 4-((5-(1-methyl-1H-pyrazol-4-yl)isoquinolin-3-yl)amino)-N-(1-methylpiperidin-4-yl)-3-(trifluoromethoxy)benzamide], the IC50 turned out to be 293 nM.
Next, `COc1cc(-c2cnn(C)c2)ccc1Nc1ncc2ccnc(NC(C)(C)CO)c2n1` [Example 114]: 17 nM; `COc1cc(-c2cnn(C)c2)ccc1Nc1ncc2ccnc(N(C)C3CCOCC3)c2n1` [Example 81, N2-(2-methoxy-4-(1-methyl-1H-pyrazol-4-yl)phenyl)-N8-methyl-N8-(tetrahydro-2H-pyran-4-yl)pyrido[3,4-d]pyrimidine-2,8-diamine]: 33 nM.
With `COc1nc(N2CCOCC2)ccc1Nc1ncc2ccnc(NCC(C)(C)C)c2n1` [Example 45, N^2-(2-methoxy-6-morpholinopyridin-3-yl)-N8-neopentylpyrido[3,4-d]pyrimidine-2,8-diamine] the figure was 13 nM.
With `COc1cc(Cl)ccc1Nc1ncc2ccnc(N3CCC4(COC4)C3)c2n1` [Example 178, N-(4-Chloro-2-methoxyphenyl)-8-(2-oxa-6-azaspiro[3.4]octan-6-yl)pyrido[3,4-d]pyrimidin-2-amine] the figure was 24 nM; with `COc1cc(-c2cnn(C)c2)ccc1Nc1ncc2ccnc(NC3CCCC3)c2n1` [Example 39], 7 nM; with `COc1cc(C(=O)N2CC(OC)C2)ccc1Nc1cc2c(-c3cnn(C4CCN(C)CC4)c3)cccc2cn1` [Example 19, (3-Methoxy-4-((5-(1-(1-methylpiperidin-4-yl)-1H-pyrazol-4-yl)isoquinolin-3-yl)amino)phenyl)(3-methoxyazetidin-1-yl)methanone], 31 nM.
As to `COc1cc(-c2cnn(CCO)c2)ccc1Nc1ncc2ccnc(NC3CCOCC3)c2n1` [Example 44, 2-(4-(3-methoxy-4-((8-((tetrahydro-2H-pyran-4-yl)amino)pyrido[3,4-d]pyrimidin-2-yl)amino)phenyl)-1H-pyrazol-1-yl)ethanol], the IC50 worked out at 3 nM.
With `CCOc1cc(-c2nncn2C)ccc1Nc1ncc2cc(C)nc(NCC(C)(C)C)c2n1` [Example 182] the figure was 3 nM.

As a reminder, the IC50 is the concentration at which inhibition is half-maximal.
